Reference: patent US20100137367A1, “NOVEL CRYSTALLINE BEPOTASTINE METAL SALT HYDRATE, METHOD FOR PREPARING SAME, AND PHARMACEUTICAL COMPOSITION COMPRISING SAME” (Hanmi Pharm. Co., Ltd., priority 2007, published 2010)
Where two headings read alike, the source gives them in different places.

Experiments:
[1] = Hygroscopicity of bepotastine salts (Table 1); format: physicochemical
Description: Further, when the crystalline bepotastine metal salt hydrate of formula (I) of the present invention is stored under an extremely high-moisture condition, its moisture content don't increases substantially, thus, it is non-hygroscopic. In contrast, an alkaline metal salt of bepotastine, e.g., lithium salt, sodium salt, potassium salt, magnesium salt or barium salt of bepotastine; a transition metal salt of bepotastine, e.g., zinc salt, aluminum salt, bismuth salt, or iron salt of bepotastine; an organic amine salt of bepotastine, e.g., ammonium salt, ethyl amine salt, dimethyl amine salt, triethylamine salt or N-methyl glucamine salt of bepotastine; and an amino acidic salt of the bepotastine, e.g., arginine salt, lysine salt, or histidine salt of bepotastine, are mostly obtained as non-crystalline forms, and, even when they are obtained as crystalline forms, they are hygroscopic.

[2] = 40° C. and 75% relative humidity
Description: Accordingly, there have been attempts to convert bepotastine to an acid salt form having a high optical purity which is resistant to racemization.

[3] = Effect of severe storage condition on the optical purity (chiral HPLC); format: physicochemical; details: for Change of optical purity during the storage / Optical purity (%) After standing at 60° C. and 75% R.H. for 4 weeks in closed condition / Optical purity (%) After standing at 60° C. and 75% R.H. for 4 weeks in open condition: 60° C., 75% R.H., 4 weeks
Procedure: For the measurement of the optical purity of the bepotastine, chiral HPLC was conducted under following conditions and the optical purity was calculated using the Equation 1.
• Detector: Ultraviolet ray spectrophotometer (detection wavelength: 225 nm) • Column: YMC Chiral β-CDs (4.6×250 mm, 5 μm) • Mobile phase: methanol/ammonium acetate buffer solution=45/55(v/v, %) • Flow rate: 0.8 ml/min
Optical Purity (%)=Ps/(Ps+Pr)×100 Equation 1
wherein • Ps is the peak area of bepotastine, and • Pr is the peak area of R-enantiomer of bepotastine.
The optical purities of respective bepotastine salts were determined.

[4] = Solubility test (saturation solubility); details: for Saturation solubility (mg/ml) pH 1.2 buffer solution: pH 1.2 buffer solution (simulates gastric juice); for Saturation solubility (mg/ml) pH 6.8 buffer solution: pH 6.8 buffer solution (simulates intestinal juice)
Moisture absorption test = format: physicochemical

Compound: NCCCC[C@H](N)C(=O)O [L-Lysine]
- Hygroscopicity [1]: Hygroscopic

Compound: O=C(O)CCCN1CCC(O[C@@H](c2ccc(Cl)cc2)c2ccccn2)CC1 [Sodium]
- Hygroscopicity [1]: Hygroscopic
- Hygroscopicity ([1]; listed as sodium salt of bepotastine): highly hygroscopic

Compound: O=C(O)CCCN1CCC(O[C@@H](c2ccc(Cl)cc2)c2ccccn2)CC1.O=S(=O)(O)c1ccccc1 [Benzenesulfonic acid salt, Bepotastine Benzenesulfonic Acid Salt]
- Racemization under high moisture condition [2]: slow racemization
- Change of optical purity during the storage [3]: decreases significantly
- Optical purity (%) After standing at 60° C. and 75% R.H. for 4 weeks in closed condition [3]: 97.3%
- Optical purity (%) After standing at 60° C. and 75% R.H. for 4 weeks in open condition [3]: 95.5%
- Optical purity (%) Before the test [3]: 99.9%
- Saturation solubility (mg/ml) pH 1.2 buffer solution [4]: 45.0 mg/ml
- Saturation solubility (mg/ml) pH 6.8 buffer solution [4]: 28.1 mg/ml
- Water contents (%) Day 1 (Moisture absorption test; 25° C., 75% R.H.): 0.6%
- Water contents (%) Day 3 (Moisture absorption test; 25° C., 75% R.H.): 0.6%
- Water contents (%) Day 7 (Moisture absorption test; 25° C., 75% R.H.): 0.7%
- Water contents (%) Day 15 (Moisture absorption test; 25° C., 75% R.H.): 0.6%
- Water contents (%) initial (Moisture absorption test; 25° C., 75% R.H.): 0.4%
- Water contents (%) Day 1 (Moisture absorption test; 40° C., 75% R.H.): 0.7%
- Water contents (%) Day 3 (Moisture absorption test; 40° C., 75% R.H.): 0.8%
- Water contents (%) Day 7 (Moisture absorption test; 40° C., 75% R.H.): 0.8%
- Water contents (%) Day 15 (Moisture absorption test; 40° C., 75% R.H.): 0.9%
- Water contents (%) initial (Moisture absorption test; 40° C., 75% R.H.): 0.4%
- Water contents (%) Day 1 (Moisture absorption test; 40° C., 90% R.H.): 2.4%
- Water contents (%) Day 3 (Moisture absorption test; 40° C., 90% R.H.): 2.5%
- Water contents (%) Day 7 (Moisture absorption test; 40° C., 90% R.H.): 2.4%
- Water contents (%) Day 15 (Moisture absorption test; 40° C., 90% R.H.): 2.5%
- Water contents (%) initial (Moisture absorption test; 40° C., 90% R.H.): 0.4%

Compound: O.O.O=C([O-])CCCN1CCC(O[C@@H](c2ccc(Cl)cc2)c2ccccn2)CC1.O=C([O-])CCCN1CCC(O[C@@H](c2ccc(Cl)cc2)c2ccccn2)CC1.[Ca+2] [Calcium salt hydrate, Bepotastine Calcium Salt Dihydrate]
- Change of optical purity during the storage [3]: remained unchanged
- Optical purity (%) After standing at 60° C. and 75% R.H. for 4 weeks in closed condition [3]: 99.9%
- Optical purity (%) After standing at 60° C. and 75% R.H. for 4 weeks in open condition [3]: 99.9%
- Optical purity (%) Before the test [3]: 99.9%
- Solubility compared with bepotastine benzenesulfonic acid salt ([4]; pH 1.2): similar
- Saturation solubility (mg/ml) pH 1.2 buffer solution [4]: 43.2 mg/ml
- Solubility relative to bepotastine benzenesulfonic acid salt ([4]; pH 6.8): at least 2 times
- Saturation solubility (mg/ml) pH 6.8 buffer solution [4]: 61.6 mg/ml
- Hygroscopicity (conclusion of moisture absorption test) (Moisture absorption test): essentially non-hygroscopic
- Water contents (%) Day 1 (Moisture absorption test; 25° C., 75% R.H.): 4.3%
- Water contents (%) Day 3 (Moisture absorption test; 25° C., 75% R.H.): 4.3%
- Water contents (%) Day 7 (Moisture absorption test; 25° C., 75% R.H.): 4.4%
- Water contents (%) Day 15 (Moisture absorption test; 25° C., 75% R.H.): 4.4%
- Water contents (%) initial (Moisture absorption test; 25° C., 75% R.H.): 4.3%
- Water contents (%) Day 1 (Moisture absorption test; 40° C., 75% R.H.): 4.4%
- Water contents (%) Day 3 (Moisture absorption test; 40° C., 75% R.H.): 4.6%
- Water contents (%) Day 7 (Moisture absorption test; 40° C., 75% R.H.): 4.5%
- Water contents (%) Day 15 (Moisture absorption test; 40° C., 75% R.H.): 4.6%
- Water contents (%) initial (Moisture absorption test; 40° C., 75% R.H.): 4.3%
- Increment of water content (Moisture absorption test; 40° C., 90% R.H., 15 days): less than 0.7%
- Water contents (%) Day 1 (Moisture absorption test; 40° C., 90% R.H.): 4.7%
- Water contents (%) Day 3 (Moisture absorption test; 40° C., 90% R.H.): 4.9%
- Water contents (%) Day 7 (Moisture absorption test; 40° C., 90% R.H.): 4.9%
- Water contents (%) Day 15 (Moisture absorption test; 40° C., 90% R.H.): 5.0%
- Water contents (%) initial (Moisture absorption test; 40° C., 90% R.H.): 4.3%

Compound: L-Arginine
- Hygroscopicity [1]: Hygroscopic

Compound: Zinc
- Hygroscopicity [1]: Hygroscopic

Compound: O=C(O)CCCN1CCC(O[C@@H](c2ccc(Cl)cc2)c2ccccn2)CC1 [Potassium]
- Hygroscopicity ([1]; listed as potassium salt of bepotastine): highly hygroscopic

Compound: [Mg] [Magnesium]
- Hygroscopicity [1]: Hygroscopic

Compound: O=C(O)CCCN1CCC(OC(c2ccc(Cl)cc2)c2ccccn2)CC1.O=C(O)c1ccccc1 (stereo not shown) [bepotastine benzoic acid salt]
- Racemization under high moisture condition [2]: slow racemization
